Our source for the TGI and GI50 values is PubChem BioAssay (NCI).

Molecules are shown by their SMILES.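 These data come from cells grown in 96-well plates and exposed to compound for 48 hours at five concentrations. GI50: concentration for 50% inhibition of growth. TGI: total growth inhibition.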

Some test systems named below: CCRF-CEM leukemia; HOP-62 NSCLC; KM12 colon; NCI-H226 lung; NCI-H23 lung; NCI-H460 lung; OVCAR-8 ovarian; RXF 393 renal; SK-OV-3 ovarian; SR leukemia.
Test in all cases: growth of human tumour cells (NCI), 48 h

For `O=C(NC(=Nc1ccccc1)SCSC(=Nc1ccccc1)NC(=O)c1ccco1)c1ccco1`, the TGI is above 100 µM with CCRF-CEM leukemia; 44.9 µM with HOP-62 NSCLC; above 100 µM in the assay on KM12 colon; above 100 µM in the assay with NCI-H226 lung; 80.6 µM in the assay with NCI-H23 lung; above 100 µM in the assay with NCI-H460 lung. The TGI in the assay on OVCAR-8 ovarian was above 100 µM; in the assay on RXF 393 renal it was 55 µM.
On to `CCc1ccccc1NC(=O)C(=O)C(C#N)c1ccccc1Cl` (centres undefined), for which the TGI with CCRF-CEM leukemia is above 100 µM; in the assay on HOP-62 NSCLC it was above 100 µM; with KM12 colon, above 100 µM; with NCI-H226 lung it was above 100 µM; with NCI-H23 lung, above 100 µM; in the assay on NCI-H460 lung, 33.1 µM. The TGI in the assay on OVCAR-8 ovarian and in the assay with RXF 393 renal was above 100 µM each time.
Consider `COc1ccc(-c2coc3cc(O)ccc3c2=O)cc1`, for which the TGI in the assay with CCRF-CEM leukemia, in the assay with HOP-62 NSCLC, in the assay on KM12 colon, with NCI-H226 lung, in the assay on NCI-H23 lung and in the assay on NCI-H460 lung was above 100 µM throughout. For the same compound, the TGI in the assay with OVCAR-8 ovarian, in the assay with SK-OV-3 ovarian and in the assay on SR leukemia was above 100 µM in each case.
Regarding `CNS(=O)(=O)OCC1OC(n2cnc3cncnc32)C(O)C1O` (centres undefined), the GI50 in the assay with CCRF-CEM leukemia, with HOP-62 NSCLC, with KM12 colon, in the assay on NCI-H226 lung, in the assay with NCI-H23 lung and with NCI-H460 lung was above 100 µM in each case. Also, the GI50 with OVCAR-8 ovarian, with RXF 393 renal and in the assay with SK-OV-3 ovarian was above 100 µM in each case. In addition, the TGI with CCRF-CEM leukemia, with HOP-62 NSCLC, with KM12 colon, in the assay with NCI-H226 lung, in the assay with NCI-H23 lung and with NCI-H460 lung was above 100 µM in each case. Also, the TGI with OVCAR-8 ovarian, in the assay on RXF 393 renal and with SK-OV-3 ovarian was above 100 µM in each case.
As to `Cc1ccc(C)c2c1C(=O)N(c1ccc(F)cc1F)C2=O`, the GI50 in the assay with CCRF-CEM leukemia, with HOP-62 NSCLC, in the assay on KM12 colon, in the assay with NCI-H226 lung, with NCI-H23 lung and in the assay with NCI-H460 lung was above 100 µM in each case. In addition, the GI50 in the assay with OVCAR-8 ovarian, in the assay on RXF 393 renal and with SK-OV-3 ovarian was above 100 µM in each case. The TGI in the assay with CCRF-CEM leukemia, with HOP-62 NSCLC, in the assay on KM12 colon, in the assay with NCI-H226 lung, in the assay on NCI-H23 lung and in the assay with NCI-H460 lung was above 100 µM each time. The TGI with OVCAR-8 ovarian, in the assay on RXF 393 renal and with SK-OV-3 ovarian was above 100 µM throughout.
As for `O=C(COc1ccccc1Cl)N1N=C(c2ccccc2)CC1(O)c1ccccc1` (centres undefined), the TGI came to 28.5 µM in the assay with HOP-62 NSCLC; 41.8 µM in the assay on KM12 colon; 35.9 µM in the assay with NCI-H226 lung; 25.1 µM in the assay with NCI-H23 lung; 32 µM in the assay with NCI-H460 lung; 32.1 µM with OVCAR-8 ovarian. The TGI with SK-OV-3 ovarian amounted to 47.7 µM; in the assay on SR leukemia it was 32.8 µM.
Take `c1ccc2c(c1)SC(=C1Sc3ccccc3S1)S2`: the TGI in the assay with CCRF-CEM leukemia, with HOP-62 NSCLC, in the assay on NCI-H23 lung, in the assay on NCI-H460 lung, in the assay with OVCAR-8 ovarian and with RXF 393 renal was above 100 µM throughout. In addition, the TGI in the assay with SK-OV-3 ovarian is above 100 µM.
For `O=C1C(=c2ccc(=C3C(=O)c4ccc([N+](=O)[O-])cc4[N+]3=O)cc2)N([O-])c2cc([N+](=O)[O-])ccc21`, the GI50 in the assay on CCRF-CEM leukemia, in the assay on KM12 colon, with NCI-H226 lung, with NCI-H23 lung, with NCI-H460 lung and with OVCAR-8 ovarian was above 100 µM in each case. In addition, the GI50 with RXF 393 renal and with SK-OV-3 ovarian was above 100 µM throughout. In addition, the TGI with CCRF-CEM leukemia, in the assay on HOP-62 NSCLC, in the assay on KM12 colon, in the assay on NCI-H226 lung, with NCI-H23 lung and in the assay on NCI-H460 lung was above 100 µM throughout. The TGI with OVCAR-8 ovarian, in the assay with RXF 393 renal and in the assay on SK-OV-3 ovarian was above 100 µM in each case.
Regarding `COC(=O)Oc1nn(C(=O)OC)c(=O)c2ccccc12`, the TGI in the assay on CCRF-CEM leukemia, in the assay on HOP-62 NSCLC, in the assay with KM12 colon, in the assay with NCI-H226 lung, with NCI-H23 lung and in the assay on OVCAR-8 ovarian was above 100 µM throughout. Moreover, the TGI with SK-OV-3 ovarian and in the assay on SR leukemia was above 100 µM each time.
As to `Fc1cc(F)c(F)c(S)c1F`, the TGI with CCRF-CEM leukemia, in the assay on HOP-62 NSCLC, with KM12 colon, in the assay with NCI-H226 lung, in the assay on NCI-H23 lung and in the assay with NCI-H460 lung was above 100 µM throughout. In addition, the TGI with OVCAR-8 ovarian is above 100 µM; in the assay with RXF 393 renal, 54.8 µM; in the assay with SK-OV-3 ovarian it was above 100 µM.
Regarding `[O-]/N=[N+](/[O-])C1CCCCC1=[N+]1CCOCC1` (centres undefined), the TGI in the assay with CCRF-CEM leukemia, in the assay on HOP-62 NSCLC, in the assay with KM12 colon, with NCI-H226 lung, in the assay with NCI-H23 lung and in the assay on NCI-H460 lung was above 100 µM throughout. Besides, the TGI in the assay with OVCAR-8 ovarian, with SK-OV-3 ovarian and in the assay on SR leukemia was above 100 µM each time.
`N#CC(C#N)=CNCCN1CCN(C=C(C#N)C#N)CC1`: the TGI in the assay with HOP-62 NSCLC, with KM12 colon, in the assay with NCI-H226 lung, with NCI-H23 lung, in the assay on NCI-H460 lung and in the assay with OVCAR-8 ovarian was above 100 µM throughout. Further, the TGI in the assay on SK-OV-3 ovarian and in the assay on SR leukemia was above 100 µM each time.
On to `COC(=O)C1=COC2OC3C(C(C)O)C(=O)OC34C=CC1C24` (centres undefined), for which the TGI in the assay with CCRF-CEM leukemia was 55.4 µM; in the assay with KM12 colon, above 100 µM; with NCI-H226 lung, above 100 µM; in the assay with NCI-H23 lung, above 100 µM; in the assay with NCI-H460 lung, above 100 µM; in the assay with OVCAR-8 ovarian, 47.2 µM. The TGI in the assay on SK-OV-3 ovarian was above 100 µM.
